Test results from paper PMC9268168, “Novel Nitric Oxide Donor Dinitroazetidine-Coumarin Hybrids as Potent Anti-Intrahepatic Cholangiocarcinoma Agents” (Molecules, 2022).

Tests used:
RBE cell lines [1] = experiment: cells; details: Homo sapiens, 48 h, read-out: IC50, antiproliferation activities in RBE
RBE cells = experiment: Intracellular NO measurement with fluorescent probe DAF-FM DA (flow cytometry); format: cell-based, human; details: 2 μM, 2.5 h; for MFI (fold of RRx-001), intracellular NO: DAF-FM DA
Description: Intracellular NO was measured with 3-amino,4-aminomethyl-2′,7′-diflfluorescein, diacetate (DAF-FM DA, Beyotime, Shanghai, China). In detail, RBE cells in the logarithmic growth phase were collected and spread on 6-well plate at a density of 150,000 per well overnight. The adherent cells were pretreated with 5 μM DAF-FM DA at 37 °C for 20 min and then incubated with RRx-001, compounds 2–6 and 21 for 2.5 h, followed by flow cytometer analysis (BD Accuri C6, Shanghai, China). Cells were washed three times with cold PBS between each step. The experiment was performed three times.

RBE cell lines [2] = experiment: Cell cycle analysis (PI staining, flow cytometry); format: cell-based, human; details: 1 μM
Description: The experimental cells RBE were cultured and collected when the cells were in good growth state. After digesting with 0.25% trypsin (Beyotime), the cells were collected and centrifuged. The cells were inoculated in petri dishes (Φ = 6 cm) with an inoculation density of 500,000 cells per dish and 3 mL medium per dish. The cells were placed in the incubator, changed to serum-free RPMI 1640 medium after 12 h, left to continue to culture for 12 h, and then compounds were added. Compounds groups with the concentration of 1 μM and control group treated with DMSO were set. The original culture medium was removed, and the compounds were added. After incubation for 16h, the cells were collected and centrifuged at 1000 r for 5 min. The cells were rinsed twice with PBS, and the supernatant was removed by centrifugation. 75% ethanol (1 mL) was added and placed in a refrigerator at −20 °C overnight for cell fixation.
The fixed cells were centrifuged at 2000 r for 5 min, the supernatant was discarded, 1 mL of PBS solution was added, and the supernatant was resuspended and discarded. 0.5 mL of PI staining solution was added to each tube (staining buffer: 20 × PI staining solution: 50 × RNase A = 100:5:2) and stored at room temperature for 30 min in the dark for testing on the flow cytometry.

[3] = tested on: Cyclin B1, PARP and Caspase-3 in RBE cell lines; experiment: Western blot analysis of cell-cycle- and apoptosis-related proteins; format: cell-based, human; details: 1 and 4 μM
Description: Approximately 2 × 10^5 cells of RBE were seeded in 6-well plates. After treated with compound 3 (1 and 4 μM) for 24 h, cells were lysed with ice-cold RIPA lysis buffer (Beyotime, Shanghai, China) for 30 min and then centrifuged at 12,000 rpm for 10 min at 4 °C. The total protein concentration was determined by BCA protein assay kit (Beyotime, Shanghai, China). Equal amounts (20 μg per load) of protein samples were subjected to 12% SDS-PAGE gel and transferred onto polyvinylidene fluoride (PVDF) membranes (Epizyme Biotech, Shanghai, China), which were then blocked with 5% bovine serum albumin (Ebsdorfelgrund, Hesse, Germany) for 1.5 h and reacted with primary antibodies (1: 1000 diluted) at 4 °C overnight. Subsequently, the PVDF membranes were incubated in the secondary antibody (1: 10,000 diluted) for 2 h at room temperature. ECL chemiluminescent solution was used for color rendering. The antibodies against Cyclin B1, Caspase 3, and PARP were purchased from Cell Signaling Technology. The secondary antibodies conjugated with horseradish peroxidase (HRP) were from AoWei Biology and CST. The protein bands were developed by the chemiluminescent reagents (Meilunbio, Shanghai, China).

Compound	melting point [°C]	IC50 (RBE cell lines [1]) [nM]	MFI (fold of RRx-001), intracellular NO (RBE cells)	further results
Cc1c(Cc2ccc(C#N)cc2)c(=O)oc2cc(OCCCCN3CC([N+](=O)[O-])([N+](=O)[O-])C3)ccc12	135.1 to 136.3	–	–	–
Cc1c(Cc2ccc(F)cc2)c(=O)oc2cc(OCCCCN3CC([N+](=O)[O-])([N+](=O)[O-])C3)ccc12	113.3 to 115.1	–	–	–
Cc1cc(=O)oc2cc(OCCN3CC([N+](=O)[O-])([N+](=O)[O-])C3)ccc12	91 to 93	–	–	–
Cc1cc(=O)oc2cc(OCCCN3CC([N+](=O)[O-])([N+](=O)[O-])C3)ccc12	78.5 to 79.6	–	–	–
Cc1cc(=O)oc2cc(OCCOCC(=O)N3CC([N+](=O)[O-])([N+](=O)[O-])C3)ccc12	82.5 to 84.5	–	–	–
Cc1c(Cc2ccc(C(F)(F)F)cc2)c(=O)oc2cc(OCCOCC(=O)N3CC([N+](=O)[O-])([N+](=O)[O-])C3)ccc12 [Compound 2, 7-(2-(2-(3,3-Dinitroazetidin-1-yl)-2-oxoethoxy)ethoxy)-4-methyl-3-(4-(trifluoromethyl)benzyl)-2H-chromen-2-one]	65.3 to 67	1110	0.95 fold of RRx-001	–
Cc1c(Cc2ccc(C#N)cc2)c(=O)oc2cc(OCCOCC(=O)N3CC([N+](=O)[O-])([N+](=O)[O-])C3)ccc12 [Compound 3, 4-((7-(2-(2-(3,3-Dinitroazetidin-1-yl)-2-oxoethoxy)ethoxy)-4-methyl-2-oxo-2H-chromen-3-yl)methyl)benzonitrile]	74.9 to 76.3	950	1.36 fold of RRx-001	cell cycle effect (in words) (RBE cell lines [2]): arrest the cell cycle at G2/M phase; mean percentage of cells in the G2/M phase (RBE cell lines [2]; DMSO control 18%): 23%; NO release level in RBE cells (in words) (RBE cells; compared to RRx-001): highest NO release concentration; expression of PARP, Caspase-3 and Cyclin B1 (Western blotting) [3]: downregulated
Cc1c(Cc2ccc(F)cc2)c(=O)oc2cc(OCCOCC(=O)N3CC([N+](=O)[O-])([N+](=O)[O-])C3)ccc12 [Compound 4, 7-(2-(2-(3,3-Dinitroazetidin-1-yl)-2-oxoethoxy)ethoxy)-3-(4-fluorobenzyl)-4-methyl-2H-chromen-2-one]	70 to 71.9	890	0.86 fold of RRx-001	–
Cc1c(Cc2ccccc2)c(=O)oc2cc(OCCOCC(=O)N3CC([N+](=O)[O-])([N+](=O)[O-])C3)ccc12 [Compound 5, 3-Benzyl-7-(2-(2-(3,3-dinitroazetidin-1-yl)-2-oxoethoxy)ethoxy)-4-methyl-2H-chromen-2-one]	82.5 to 84.5	710	0.83 fold of RRx-001	–
Cc1cc(=O)oc2cc(OCCCCN3CC([N+](=O)[O-])([N+](=O)[O-])C3)ccc12 [Compound 21, 7-(4-(3,3-Dinitroazetidin-1-yl)butoxy)-4-methyl-2H-chromen-2-one]	85.8 to 87.2	1090	1.13 fold of RRx-001	–
O=C(CBr)N1CC([N+](=O)[O-])([N+](=O)[O-])C1 [RRx-001, reference compound]	–	2000	1 fold of RRx-001	–

More lines, main results first:

melting point [°C]	Compound	IC50 (RBE cell lines [1]) [nM]	MFI (fold of RRx-001), intracellular NO (RBE cells)	further results
122.5 to 124.1	Cc1c(Cc2ccc(C#N)cc2)c(=O)oc2cc(OCCN3CC([N+](=O)[O-])([N+](=O)[O-])C3)ccc12	–	–	–
137.9 to 139.2	Cc1c(Cc2ccc(F)cc2)c(=O)oc2cc(OCCN3CC([N+](=O)[O-])([N+](=O)[O-])C3)ccc12	–	–	–
173 to 175	Cc1c(Cc2ccccc2)c(=O)oc2cc(OCCN3CC([N+](=O)[O-])([N+](=O)[O-])C3)ccc12	–	–	–
115.1 to 116.8	Cc1c(Cc2ccccc2)c(=O)oc2cc(OCCCN3CC([N+](=O)[O-])([N+](=O)[O-])C3)ccc12	–	–	–
98 to 99.8	Cc1c(Cc2ccc(C(F)(F)F)cc2)c(=O)oc2cc(OCCN3CC([N+](=O)[O-])([N+](=O)[O-])C3)ccc12	–	–	–
